# What was measured:
# Assay type in all cases: cell-based
# A549 cells [1] = experiment: Live-dead assay (calcein/EthD-1) by flow cytometry; conditions: 48 h
# Method: A live cell assay and a dead cell assay were carried out using a mixture of two fluorescent dyes: calcein (green dye for live cells) and ethidium homodimer-1 (EthD-1, red dye for dead cells). The cells were washed and stained with calcein and EthD-1 before conducting imaging fluorescence microscopy and flow cytometry experiments. When treated with 20 μM 9c, we observed a drastic decrease in the number of live cells (green) and a slight increase in the number of dead cells (red).
# The A549 cells were seeded in 6-well plates at a density of 1 × 10^6 cells per well, and the cells underwent treatment with the compound (20 and 40 μM) for 48 h. The A549 cells were analyzed using fluorescent dyes for both living and dead cells with the LIVE/DEAD kit (Thermo Fisher Scientific, Waltham, MA, USA). For cell staining, we used EthD-1 and calcein by referring to the manufacturer’s instructions. Images were captured with an EVOS M5000 Imaging System (Thermo Fisher Scientific Inc., Waltham, MA, USA).
# A549 cells [2] = experiment: Cell viability (MTS) assay in A549 cells; conditions: Homo sapiens, 48 h
# Method: To test the effect of the compounds in terms of cell growth regulation in lung cancer cell lines such as A549 and NCI-H1299 cells, these cells were treated in 96-well plates for 48 h with the compounds at concentrations ranging from 0 μM to 100 μM. […] Therefore, we decided to perform an additional experiment with 9c.
# A549 and NCI-H1299 cells were seeded in 96-well plates at a density of 1 × 10^5 cells per well for 24 h before being exposed to compounds at various concentrations. After 48 h of compound treatment, the CellTiter 96 AQueous One Solution Cell Proliferation Assay Kit (Promega, Madison, WI, USA) was used to conduct a cell viability assay. The cells were incubated with solution reagents for 2 h at 37 °C before being measured for absorbance at 490 nm using a Synergy HTX Multi-Mode microplate reader (BioTek Instruments, Inc., Winooski, VT, USA).
# hA1 AR [3] = biological target: T1, hA1 AR (Homo sapiens, UniProt P30542); experiment: cAMP accumulation assay, agonist mode, hA1 AR; conditions: relative to NECA, CHO-A1 cells
# T1 construct: host or cells: CHO-A1 (CHO cells expressing hA1 AR)
# T1 sequence (P30542 1-326): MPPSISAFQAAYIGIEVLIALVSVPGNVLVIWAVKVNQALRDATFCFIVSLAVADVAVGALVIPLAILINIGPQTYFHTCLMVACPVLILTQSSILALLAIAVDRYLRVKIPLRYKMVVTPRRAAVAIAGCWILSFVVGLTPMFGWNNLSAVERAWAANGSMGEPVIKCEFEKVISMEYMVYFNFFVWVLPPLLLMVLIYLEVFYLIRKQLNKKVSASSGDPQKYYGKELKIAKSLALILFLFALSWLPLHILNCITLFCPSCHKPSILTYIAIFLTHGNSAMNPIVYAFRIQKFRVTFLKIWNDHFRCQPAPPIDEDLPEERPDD
# Source text: (§1) To determine whether 1,3,5-triazine scaffold derivatives behave as agonists or antagonists, we performed cAMP accumulation assays with 11a and 11b at hA1 and hA3 AR. We confirmed whether the test compounds behave as antagonists by measuring the concentration change in cAMP in the presence of a full agonist 5-N-ethylcarboxamido adenosine (NECA) using antagonist mode assays. We also confirmed whether the test compounds could behave as agonists by comparing the relative percentage activation of NECA using agonist mode assays.
# (§2) hA1 and hA3 AR functional experiments were carried out in CHO-A1 and CHO-A3#18 cell line, respectively. The day before the assay, the cells were seeded on the 96-well culture plate (Falcon 353072). The cells were washed with wash buffer (Mixture F12 Ham’s (Sigma N6658) for hA1 AR; Dulbecco’s modified eagle’s medium nutrient mixture F-12 ham (Sigma D8062) for hA3 AR; 25mM Hepes; pH = 7.4). Wash buffer was replaced by incubation buffer (Mixture F12 Ham’s (Sigma N6658) for hA1 AR; Dulbecco’s modified eagle’s medium nutrient mixture F-12 ham (Sigma D8062) for hA3 AR; 25 mM Hepes, 20 µM Rolipram (Sigma R6520); pH = 7.4). The cells were pre-incubated at 37 °C for 15 min. […] After incubation, the amount of cAMP was determined using cAMP Biotrak Enzyme immunoassay (EIA) System Kit (GE Healthcare RPN225).
# hA3 AR [4] = biological target: T2, hA3 AR (Homo sapiens, UniProt P0DMS8); experiment: cAMP accumulation assay, agonist mode, hA3 AR; design: expressed in transfected cells; conditions: relative to NECA, CHO-A3#18 cells
# T2 sequence (P0DMS8 1-318): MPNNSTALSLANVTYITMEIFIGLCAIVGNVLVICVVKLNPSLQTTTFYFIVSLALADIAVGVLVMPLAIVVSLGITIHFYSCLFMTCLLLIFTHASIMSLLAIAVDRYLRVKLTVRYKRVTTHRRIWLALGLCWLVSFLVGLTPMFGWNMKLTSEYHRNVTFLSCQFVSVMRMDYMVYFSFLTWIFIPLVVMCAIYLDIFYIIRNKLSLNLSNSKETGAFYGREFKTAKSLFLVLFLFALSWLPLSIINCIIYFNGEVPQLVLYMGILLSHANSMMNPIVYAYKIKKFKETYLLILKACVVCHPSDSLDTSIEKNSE
# Source text: as §1, §2
# hA3 AR [5] = biological target: T2, hA3 AR; experiment: cAMP accumulation assay, antagonist mode, hA3 AR; design: expressed in transfected cells; conditions: in presence of NECA, CHO-A3#18 cells
# Source text: as §1
# (§3) hA1 and hA3 AR functional experiments were carried out in CHO-A1 and CHO-A3#18 cell line, respectively. The day before the assay, the cells were seeded on the 96-well culture plate (Falcon 353072). The cells were washed with wash buffer (Nutrient Mixture F12 Ham’s (Sigma N6658) for hA1 AR; Dulbecco’s modified eagle’s medium nutrient mixture F-12 ham (Sigma D8062) for hA3 AR; 25 mM Hepes; pH = 7.4). Wash buffer was replaced by incubation buffer (Mixture F12 Ham’s (Sigma N6658) for hA1 AR; Dulbecco’s modified eagle’s medium nutrient mixture F-12 ham (Sigma D8062) for hA3 AR; 25 mM Hepes, 20 µM Rolipram (Sigma R6520); pH = 7.4). […] After incubation, the amount of cAMP was determined using cAMP Biotrak Enzyme immunoassay (EIA) System Kit (GE Healthcare RPN225).
# hA1 AR [6] = biological target: T1, hA1 AR; experiment: cAMP accumulation assay, antagonist mode, hA1 AR; conditions: in presence of NECA, CHO-A1 cells
# Source text: as §1, §3
"Percentage activation in agonist mode, hA1 AR (hA1 AR [3]) [%]","Percentage activation in agonist mode, hA3 AR (hA3 AR [4]) [%]","Percentage inhibition in antagonist mode, hA3 AR (hA3 AR [5]) [%]","Percentage inhibition in antagonist mode, hA1 AR (hA1 AR [6]) [%]",SMILES,Dead cells (quadrant Q4) (A549 cells [1]; 20 μM) [%],Dead cells (quadrant Q4) (A549 cells [1]; 40 μM) [%],viability at 25 µM (A549 cells [2]) [%]
,,,,"COc1cc(Nc2nc(N)nc(-c3ccc(O)cc3)n2)ccc1Cl [Compound 9c, 4-{4-amino-6-[(4-chloro-3-methoxyphenyl)amino]-1,3,5-triazin-2-yl}phenol]",34.4,46.1,59.9
11,17,77,1,"COc1ccc(-c2nc(N)nc(Nc3ccc(OC)c(F)c3)n2)cc1 [Compound 11a, N^2-(3-fluoro-4-methoxyphenyl)-6-(4-methoxyphenyl)-1,3,5-triazine-2,4-diamine]",,,
23,6,88,60,"COc1ccc(Nc2nc(N)nc(-c3ccc(F)cc3)n2)cc1F [Compound 11b, N^2-(3-fluoro-4-methoxyphenyl)-6-(4-fluorophenyl)-1,3,5-triazine-2,4-diamine]",,,

# Reference: PMC9268102, “Design, Synthesis and Biological Evaluation of 1,3,5-Triazine Derivatives Targeting hA1 and hA3 Adenosine Receptor” (Molecules, 2022)
